Source: publication PMC6277545, “Structural Basis for the Limited Response to Oxidative and Thiol-Conjugating Agents by Triosephosphate Isomerase From the Photosynthetic Bacteria Synechocystis” (Frontiers in Molecular Biosciences, 2018)

Assays:
Assay type in all cases: biochemical
AtcTPI = target: T1, AtcTPI (Arabidopsis thaliana, UniProt P48491); test: residual activity after […] h incubation with reagent, coupled assay; conditions: read-out: concentration giving 50% of original activity
T1 construct: gene CTIMC; cytosolic isoform, purified dimer; expression not described here
T1 sequence (P48491 whole entry, canonical isoform): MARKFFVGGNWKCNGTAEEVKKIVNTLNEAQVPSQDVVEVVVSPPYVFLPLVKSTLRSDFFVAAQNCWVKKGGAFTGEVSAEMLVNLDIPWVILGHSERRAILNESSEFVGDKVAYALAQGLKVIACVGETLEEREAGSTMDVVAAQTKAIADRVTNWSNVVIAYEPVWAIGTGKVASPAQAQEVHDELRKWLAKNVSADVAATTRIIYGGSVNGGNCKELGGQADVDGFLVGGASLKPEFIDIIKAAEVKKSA

SyTPI [1] = target: T2, SyTPI (Synechocystis sp. PCC 6803, UniProt Q59994); test: as above; conditions: read-out: % activity at 0.5 mM
T2 construct: gene tpiA; full length, codon-optimised, E. coli BL21(DE3) delta-tpi; His tag cut by PreScission, extra Gly-Pro-His before Met1; homodimer 54 kDa
T2 sequence (Q59994 whole entry): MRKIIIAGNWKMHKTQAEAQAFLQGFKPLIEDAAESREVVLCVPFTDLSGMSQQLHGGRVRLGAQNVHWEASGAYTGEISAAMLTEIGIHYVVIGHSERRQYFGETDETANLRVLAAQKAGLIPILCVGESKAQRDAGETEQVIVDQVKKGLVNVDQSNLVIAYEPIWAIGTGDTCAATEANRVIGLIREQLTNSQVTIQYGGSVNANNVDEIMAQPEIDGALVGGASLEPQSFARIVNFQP

AtpdTPI = target: T3, AtpdTPI (Arabidopsis thaliana, UniProt Q9SKP6); test: as above; conditions: read-out: concentration giving 50% of original activity
T3 construct: gene TIM; expression not described here
T3 sequence (Q9SKP6 60-315 limits assumed): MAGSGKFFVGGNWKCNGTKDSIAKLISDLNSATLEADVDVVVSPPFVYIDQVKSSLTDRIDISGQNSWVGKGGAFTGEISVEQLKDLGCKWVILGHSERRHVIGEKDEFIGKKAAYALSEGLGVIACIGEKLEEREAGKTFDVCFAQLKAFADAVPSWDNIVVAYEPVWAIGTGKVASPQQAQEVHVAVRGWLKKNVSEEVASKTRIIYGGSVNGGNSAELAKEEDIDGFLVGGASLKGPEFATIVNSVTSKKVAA

HsTPI [2] = target: T4, HsTPI (Homo sapiens, UniProt P60174); test: residual activity after […] min incubation, coupled assay
T4 construct: gene TPI1; source and expression not described; dimer
T4 sequence (P60174 2-249): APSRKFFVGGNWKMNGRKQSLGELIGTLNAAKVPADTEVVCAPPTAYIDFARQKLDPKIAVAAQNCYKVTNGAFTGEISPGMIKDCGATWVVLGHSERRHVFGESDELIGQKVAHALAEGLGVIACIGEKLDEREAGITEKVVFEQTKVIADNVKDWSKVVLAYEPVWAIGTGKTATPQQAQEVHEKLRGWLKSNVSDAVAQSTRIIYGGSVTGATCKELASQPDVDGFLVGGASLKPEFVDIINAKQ

SyTPI [3] = target: T2, SyTPI; test: as above
HsTPI [4] = target: T5, HsTPI (Homo sapiens, UniProt P60174, L109T/S106T/V102Y); test: activity with / without ornidazole after […] h
T5 construct: gene TPI1; source and expression not described; dimer
T5 sequence (P60174 2-249 V102Y/S106T/L109T): as the sequence (P60174 2-249) above, with V101Y, S105T, L108T counted along it

IC50 (AtcTPI) [nM]	activity at 500 µM (SyTPI [1]) [%]	IC50 (AtpdTPI) [µM]	activity at 50 µM (HsTPI [2]) [%]	inhibition at 50 µM (SyTPI [3]) [%]	activity at 50 µM (HsTPI [4]) [%]	Compound
5	50	18	–	–	–	CSS(C)(=O)=O [S-methyl methanethiosulfonate]
–	–	–	90	~80	~60	Cc1ncc([N+](=O)[O-])n1CC(O)CCl (stereo not drawn) [ornidazole]
